Experimental data taken from a melting point compilation (Tetko et al.; mined from patent text by program, amines drawn as free bases though some values may be those of a salt).
Non-standard residues stand in square brackets, D forms with d. Residues, ends and D or L forms follow the SMILES beside them. pGlu = O=C1CC[CH](C(=O)O)N1

| melting point [°C] | Structure (SMILES) |
| --- | --- |
| 213 to 214 | CC1NC(=S)NN=C1c1ccccc1 (stereo not given) |
| 182 to 184 | O=S(=O)(c1ccc(-c2ccc3cnc(Nc4ccc(N5CCOCC5)cc4)nn23)cc1)N1CCCC1 |
| 143 to 145 | CS(=O)(=O)c1ccc(-n2nc(C(F)(F)F)nc2-c2ccc(Br)cc2)nc1 |
| 113 to 115 | COc1ccc(-c2nnc3c4ccccc4c(N(C)CCCCl)nn23)cc1 |
| 207 to 209 | O=C(O)C1CCN2c3ccccc3Cc3ccccc3C2C1 (stereo not given) |
| 123 to 125 | OC1(C(c2ccccc2)c2ccccc2)CSC2=NCCCCN21 (stereo not given) |
| 301 to 303 | Cn1nnnc1-c1cn(C)c2cc(C#N)ccc2c1=O |
| > 300 | NC(=O)CC1Cc2cc(Br)cc3[nH]c(=O)c(=O)n1c23 (stereo not given) |
| 79 to 82 | COC(=O)CCc1ccc(NC(=O)C(Cn2ccnc2)NS(=O)(=O)c2ccc(Cl)cc2)cc1 (racemic) |
| 116 to 117 | c1ccc2c(c1)Cn1ncnc1-2 |
| 210 to 211 | CC(C)(C)c1cc(C(=O)NNC(N)=S)cc(C(C)(C)C)c1O |
| 159 to 160 | CC(C)C(=O)Nc1ccc(C(=O)O)cc1N |
| 130 | O=Cc1ccccc1-c1nnn[nH]1 |
| 202 to 203 | CC1(C)Oc2ccc(C#N)cc2[C@@H](n2cnccc2=O)[C@@H]1O (relative stereo) |
| 71.5 to 72.5 | CC(C)(C)C(=O)NCCCOc1ccncc1 |
| 180 to 182 | CCOC(=O)c1c(Cl)[nH]c(=O)c(I)c1Oc1cc(C)cc(C)c1 |
| 88 to 91 | CC(=O)c1c(CCN2CCN(C)CC2)nc(-c2ccccc2)nc1-c1cccc([N+](=O)[O-])c1 |
| 238 to 241 | NC(=O)[C@@H]1[C@H](Nc2c(Br)cnc3[nH]c(-c4ccsc4)nc23)[C@H]2C=C[C@@H]1C2 |
| 275 | Cc1ccc(N2C(=O)C(O)=C(C(=O)c3ccc(C(C)C)cc3)C2c2ccc(OC3CCOCC3)cc2)nn1 (stereo not given) |
| 86 to 88 | O=Cc1cc([N+](=O)[O-])ccc1Br |
| 54 to 55 | CCOC(=O)c1nc(OC)cc(OC)n1 |
| 101 to 102 | CCCC[C@H](NC(=O)[C@H](CC(C)C)NC(=O)c1ccc(F)c(F)c1F)C(=O)CSCc1ccco1 |
| 102 to 104 | CC(=O)NNC(=O)Nc1ccccc1-c1ccc(C)cc1 |
| 174 to 175 | CCOC(=O)c1cnc2c(NC(=O)c3c(Cl)cccc3Cl)cccc2c1SCC(=O)O |
| 164 to 165 | C[Si](C)(C)C=Cc1cn(C2OC(CO)C(O)C2F)c(=O)[nH]c1=O (stereo not given) |
| 176 to 177 | Cc1nc(N)cc(-n2ccc3ccccc32)n1 |
| 82 to 84 | Nc1cc(Oc2cc(Oc3cc(N)cc(C(F)(F)F)c3)cc(C(F)(F)F)c2)cc(C(F)(F)F)c1 |

| melting point [°C] | Structure (SMILES) |
| --- | --- |
| 123 to 125 | COC(=O)c1ccc(CN(C2CCCCC2O)S(=O)(=O)c2ccc(Cl)cc2)c(F)c1F (stereo not given) |
| 122 | CCCNCC(O)COc1ccccc1CCCc1cccc2c1CC(=O)N2 (stereo not given) |
| 142 to 143 | CC(C)(C)n1ncc(SCc2ccc(Cl)cc2)c(Cl)c1=O |
| 288 | Cc1nc2cc(-c3ccnc(-c4cn(C)c(=O)n4-c4ccc(C(C)(C)C#N)cc4)c3)cnc2[nH]1 |
| 100 | CN1CCN(c2nc3c(c(N4CCOCC4)n2)SCCC3)CC1 |
| 165 to 168 | Cc1csc2nccn12 |
| 130 to 132 | O=C(NCCCCCNc1c([N+](=O)[O-])cnc2ccccc12)c1ccccc1 |
| 280 | Nc1nc(N2CCC2)c2nc[nH]c2n1 |
| 258 to 259 | CC(=O)Nc1nc2n(n1)Cc1ccccc1-2 |
| 93 to 94.6 | CC(=O)OC(OC(C)=O)c1ccc(C(OC(C)=O)(C(F)(F)F)C(F)(F)F)cc1 |
| 229 to 230 | C[C@@H]1CCC[C@H](C)N1Cc1ccc2cc(NC(=O)c3ccc(-c4ccc(Cl)cc4)nc3)ccc2c1 |
| 68 | CCCC(Nc1ccc(OCc2ccccc2)cc1)C(=O)OCC (stereo not given) |
| 206 to 208 | Cc1cn(C2OC(CO)C(O)C2O)c(=S)[nH]c1=O (stereo not given) |
| 56 to 59 | CCCOC(=O)C(=O)Nc1ccccn1 |
| 96 | C(=C\c1ccoc1)/c1ccccc1 |
| 117 to 120 | Cc1ccc(C)n1-c1ccc(C2(C#N)CCCC2)cc1 |
| 121 to 123 | CC(=O)OCC1OC(n2c(=O)sc3cnc(N)nc32)C(OC(C)=O)C1OC(C)=O (stereo not given) |
| 210 | CC(=O)N(C(C)=O)n1c(=O)[nH]c2ccccc2c1=O |
| 85 | COC(=O)CCC#Cc1cc(Cl)ccc1NS(=O)(=O)c1ccc2nc(NC(C)=O)sc2c1 |
| 179 to 181 | COc1ccc(N2CC(=O)N(C)C(=O)N2)cc1 |
| 108 | CCCCCCCc1ccc(C(=O)Oc2ccc(C(=O)O)c(Cl)c2)cc1 |
| 109 | CCOC(CCCNS(=O)(=O)c1ccccc1)OCC |
| 198 to 200 | Cc1ccc(-c2ncc3c(n2)CCCCC3)nc1-c1ccncc1 |
| 155 to 157 | CC(CCCc1ccccc1)Oc1cc(O)c2c(c1)CC(C)(C)CC2C(N)=O (stereo not given) |
| 218 to 221 | NC(=O)CC(NC(=O)C(CO)NC(=O)CNC(=O)CNC(=O)C1CCC(=O)N1)C(=O)NC(Cc1ccccc1)C(N)=O (stereo not given) ([pGlu]GGSNF-NH2; configuration not given here) |
| 74 to 75 | Cc1cc2c(cc1Sc1ccc(C(=O)O)c(O)c1)C(C)(C)CCC2(C)C |
| 92 to 93 | ClCCCCOc1ccccc1/C=C/c1nc2ccccc2o1 |

Second part, the compound before the results:

| Structure (SMILES) | melting point [°C] |
| --- | --- |
| N#Cc1ccc(C=Cc2ccc(OCC(O)CO)cc2)cc1 (stereo not given) | 172 to 173 |
| CCCCc1nc(SC)c(C(=O)O)n1Cc1ccc(-c2ccccc2-c2nnn[nH]2)cc1 | 180 |
| FC(F)(F)C(c1ccc(Cl)cc1)C(Br)c1ccccc1 (stereo not given) | 143 to 146 |
| COC(c1ccc(NC(=O)c2c(C(F)(F)F)nn(C)c2C)cc1CC(C)C)(C(F)(F)F)C(F)(F)F | 138 to 139 |
| CCCCCc1ccc(-c2ccc(CCc3ccc(F)cc3)cc2)cc1 | 60 |
| N#CCc1c(Cl)nc(-c2ccc([N+](=O)[O-])cc2)n1Cc1ccccc1 | 125 to 128 |
| CCCN(c1c([O-])[c+](N(CCC)C2CC(C)(C)NC(C)(C)C2)[c+]1[O-])C1CC(C)(C)NC(C)(C)C1 | 198 to 199 |
| Cc1cccc(-n2nc(C(F)(F)F)cc2-c2ccc(S(C)(=O)=O)c(F)c2)c1 | 129 to 130 |
| CCc1nc2c(C)nc(C)cc2n1-c1ccc(CCNC(=O)NS(=O)(=O)c2ccc(C)cc2)cc1 | 143 |
| COc1ncc(Cl)cc1C(O)C(N)=O (stereo not given) | 110 to 113 |
| Nc1ncc(CN2CCN(c3ccccc3)CC2)c(N)n1 | 263 to 265 |
| CC(=O)OC1CCC2(C)C(=CCC3C2CCC2(C)C(C(C)CCC(OC(C)=O)C(C)(C)OC(C)=O)CCC32)C1 (stereo not given) | 121 to 122 |
| CCOc1ccc(C2=NNCCC2)cc1OCC | 77 to 78 |
| NCCCc1ccc(SCCC(c2ccccc2)(c2ccccc2)c2ccccc2)cc1 | 73 to 75 |
| CC1CCC2(c3c[nH]cn3)Cc3ccccc3C12 (stereo not given) | 168 to 172 |
| COc1ccc2c(-c3cccc(F)c3)noc2c1Cl | 149 to 150 |
| COc1cc(C=CC=O)cc(OC)c1OCc1ccccc1 | 114 to 115 |
| CNc1nc(-c2ccc3c(c2)CCC3)c(-c2cccnc2)s1 | 169 to 170 |
| CC(c1cccc2c1Sc1c(O[Si](c3ccccc3)(c3ccccc3)C(C)(C)C)cccc1N2C)N1C(=O)c2ccccc2C1=O (stereo not given) | 182 to 184 |
| c1cc2cc(CSc3nnc(-c4ccc5c(c4)CCO5)o3)ccc2o1 | 145 to 147 |
| Cc1cc(Cl)n2nc(S(=O)(=O)Nc3c(Cl)cccc3Cl)nc2n1 | 217 to 220 |
| O=C(C(=O)c1ccccc1Br)c1ccc(F)cc1 | 72 to 78 |
| CC(=O)NC[C@H]1CN(c2ccc(C3=CCOCC3)c(F)c2)C(=O)O1 | 148 to 151 |

| Structure (SMILES) | melting point [°C] |
| --- | --- |
| O=C(OC1CCN(Cc2cccc([N+](=O)[O-])c2)CC1)c1ccccc1 | 54 to 55 |
| O=C(c1cccc2cc[nH]c12)N1CCN(c2ccccc2)CC1 | 217 to 219 |
| Cc1nn(-c2ccccn2)c2c1C(=NO)CC(C)(C)C2Br (stereo not given) | 195 to 196 |
| CCN1CCN(C(=O)c2ccc(-c3cc(-c4n[nH]cc4-c4cccc(C)n4)ccn3)cc2)CC1 | 126 |
| O=C(O)CCc1oc2cc(O)ccc2c(=O)c1C(=O)O | 218 to 219 |
| C1CN2CCN3CCN(CCN1)P23 | 109 to 111 |
| COC(=O)c1cc2cc(Br)ccc2nc1C | 150 to 151 |
| COC(=O)c1ccccc1S(=O)(=O)NC(=O)Nc1nc(C)c2cc(C)oc2n1 | 197 to 198 |
| O=Cc1ccc(-c2cccc(-c3ccc(OC(F)(F)F)cc3)n2)cc1 | 109 to 112 |
| COc1cc(C(=O)COC(C)=O)ccc1OCCCN1CCC(C(O)(c2ccc(F)cc2)c2ccc(F)cc2)CC1 | 138 to 140 |
| CC1(C(=O)c2c[nH]c3ncc(-c4cccc(CCCO)c4)nc23)CCCCC1 | 80 to 83 |
| O=C(C=CC[C@H]1NC(=O)[C@@H]1N1C(=O)c2ccccc2C1=O)OCc1ccccc1 | 115 to 120 |
| CC(=O)C(=Cc1ccccc1[N+](=O)[O-])C(=O)OCCCl | 82 to 84 |
| CCCCCCCCCCCCCCOc1ccc(CO)cc1 | 72 to 74 |
| CCN(c1c(Cl)c(C(F)(F)F)cc2[nH]c(=O)c(=O)[nH]c12)S(C)(=O)=O | > 300 |
| Cc1ccc(S(=O)(=O)N(C)c2ccc(Cl)cc2N)cc1 | 102 |
| COc1cc(Cn2c(-c3ccc(O)cc3)c(C)c3cc(O)ccc32)ccc1OCCN1CCCCCC1 | 142 to 146 |
| CN(C)CCN(C)C(=O)Cc1ccc(NC(=O)OCc2ccccc2)cc1 | 109 to 110 |
| CC(C)(CNC(=O)[C@H](O)[C@H](O)COC(=O)Cc1ccccc1Nc1c(Cl)cccc1Cl)SN=O | 57 to 59 |
| O=C(c1cc2c(Br)cccc2o1)c1cc2c(Br)cccc2o1 | 223 to 225 |
| COC(=O)c1cc(-c2nnnn2C)c(C(=O)OC)s1 | 149 to 151 |
| CCOC(=O)c1c(CN(C)C2CCCCC2)nc2cc(OC)c(OC)cc2c1-c1ccc(OC)c(OC)c1 | 172 to 174 |
| C#CCc1c(C)nc2c(OCc3ccccc3CO)cccn12 | 137 to 138 |
